# “Also recorded” adds a separate entry of the source.
# What was measured:
# [1] = tested on: shTCF4 cells; test: Whole-cell current-clamp recordings (AP spiking, mAHP/sAHP) in shTCF4 (TCF4 knockdown) mPFC layer 2/3 pyramidal neurons, acute brain slices; type: cell-based, rat; details: N=8
# Method: (§1) Pregnant Wistar rats were obtained from Charles River Laboratories, Inc., maintained by SoBran on a 12-hour light cycle and fed ad libitum. In utero electroporation was performed as previously described (Chen et al., 2014; Maher and Loturco, 2012a). Electroporation was performed on embryonic day 16 (E16) and gestation age was confirmed during surgery. All plasmids were used at a final concentration of 1.5 μg/μl, and the mPFC was targeted for transfection. Pregnant dams were returned to the same housing conditions after recovery from surgery, and after litters were born, transfected rats were used for experiments at days P18-24.
# (§2) Acute brain slices were obtained from rats and mice as described previously (Maher and Loturco, 2012b). Briefly, P18-24 male and female animals were deeply anesthetized with isoflurane and transcardially perfused with ice-cold oxygenated (95% O2 and 5% CO2) dissecting buffer containing (in mM): 83 NaCl, 2.5 KCl, 1 NaH2PO4, 26.2 NaHCO3, 22 glucose, 72 sucrose, 0.5 CaCl2, and 3.3 MgCl2. Animals were humanly sacrificed and decapitated and the brains were rapidly removed and immersed in ice-cold oxygenated dissection buffer. Coronal slices (300 μm) were cut using a vibratome (Microm HM650V), incubated in dissection buffer for 30-45 minutes at 34° C., and then stored at room temperature. Slices were visualized using IR differential interference microscopy (DIC) (Olympus BX51WI) and a CCD camera (QICAM, QImaging). Individual layer 2/3 pyramidal cells expressing EGFP in rat brain slices were visualized with epifluorescent illumination and a 43× Olympus LUMPlanFLN (0.8 numerical aperture) objective.
# (§3) For all experiments, artificial cerebrospinal fluid (ACSF) was oxygenated (95% O2 and 5% CO2) and contained in (in mM): 125 NaCl, 25 NaHCO3, 1.25 NaH2PO4, 3 KCl, 25 dextrose, 1 MgCl2, and 2 CaCl2, pH 7.3. Patch pipettes were fabricated from borosilicate glass (N51A, King Precision Glass, Inc.) to a resistance of 2-5 MΩ. For current- and voltage-clamp measurements, pipettes were filled with (in mM): 125 potassium gluconate, 10 HEPES, 4 Mg-ATP, 0.3 Na-GTP, 0.1 EGTA, 10 phosophocreatine, 0.05% biocytin, adjusted to pH 7.3 with KOH. For all experiments GABAa receptors were blocked with SR-95531 (Gabazine, 5 μM, Ascent Scientific). For AHP current experiments, synaptic currents were blocked with DL-2-amino-5-phosphopentanoic acid (D,L-AP5, 100 μM, Ascent Scientific), 2,3, dioxo-6-nitro-1,2,3,4, tetrahydrobenzo-quinoxaline-7-sulfonamide (NBQX, 10 μM) and SR-95531 (Gabazine, 5 μM, Ascent Scientific). Ca2+-activated currents were blocked with Tetraethylammonium chloride (TEA, 1 mM, Abcam), apamin (100 nM, Abcam), and carbachol (10 μM, Abcam). Current signals were recorded with either a Multiclamp 700A (Molecular Devices) or with an Axopatch 200B amplifier (Molecular Devices) and were filtered at 2 kHz using a built-in Bessel filter and digitized at 10 kHz. Voltage signals were filtered at 2 kHz and digitized at 10 kHz. Data were acquired using Axograph on a Dell PC. Data acquisition was terminated when series resistance was >15 MΩ. For voltage clamp recordings, pyramidal cells were held at −60 mV. No holding current was used for current-clamp recordings.
# (§4) Axograph was used on a Macintosh computer for analysis. To measure spike frequency, EGFP-positive layer 2/3 neurons of the mPFC were injected with a 600 ms depolarizing current pulses ranging from 50 to 500 pA at 50 pA increments with an 10 s inter-trial interval. Each current pulse was measured in triplicate, and the number of resulting APs was averaged. For analysis of fAHP amplitude, the second and third current evoked spikes within the 600 ms pulse were measured. The fAHP potential was measured by subtracting the voltage at the peak of the fAHP from the threshold potential for spike initiation (slope of AP exceeds 50 mV/ms). The mAHP potential was measured at the peak of the AHP that followed the 600 ms current pulse. […]
# [2] = target: KCNQ1 (Homo sapiens, UniProt P51787); details: KCNQ1 antagonist; Towart et al., 2009; cited from earlier work
# [3] = tested on: shCon cells; test: Whole-cell current-clamp recordings (AP spiking, mAHP/sAHP) in shCon (control shRNA) mPFC layer 2/3 pyramidal neurons, acute brain slices; type: cell-based, rat
# Method: as §1, §2, §3, §4
# [4] = tested on: AHP currents in EGFP+ cells expressing shCon or shTCF4; test: Whole-cell voltage-clamp recordings of AHP currents with progressive pharmacological blockade; type: cell-based, rat
# Method: as §3, with “kHz.” for “kHz. Voltage signals were filtered at 2 kHz and digitized at 10 kHz. Data were acquired using Axograph on a Dell PC. Data acquisition was terminated when series resistance was >15 MΩ. For voltage clamp recordings, pyramidal cells were held at −60 mV. No holding current was used for current-clamp recordings.”
# [5] = tested on: TCF4 transcript; test: qRT-PCR of TCF4 transcript after shRNA transfection of rat neuroblastoma cells; type: cell-based; details: transfected rat neuroblastoma cells; vs control shRNA; N=4
# Excerpt: To measure Tcf4 transcript expression across the lifespan in the rat, three cortical samples per age group, as well as cortical samples extracted from both genotypes of postnatal day 21 (p21) TCF4 mice to measure SCN10a and KCNQ1 expression, were separately flash frozen and homogenized in Trizol (Life Technologies). Aqueous phase was mixed with a 1:1 volume of 70% ethanol prior to purification using RNeasy mini columns treated with DNAse according to manufacturer's protocol (Qiagen). RNA samples were then reverse-transcribed to cDNA using the Quantscript Reverse Transcriptase kit (Qiagen). Amplification of cDNA was performed with iTaq SYBR Green Supermix (Bio-Rad) and TCF4, KCNQ1, and SCN10a primers were designed using with Primer 3 software (http://bioinfo.ut.ee/primer3-0.4.0/). End-point PCR followed by product sequencing, in addition to cDNA dilution series and melt curve analysis were used to verify primer design efficiency and specificity. Real time PCR was performed on the 7900HT Fast Real-Time PCR system (Applied Biosystems) and melt curve analysis was done for absolute quantification of primer efficiency. Data were expressed as fold change of gene of interest normalized to GAPDH expression using 2^delta delta Ct. […]
# [6] = tested on: TCF4 protein; test: Western blot of endogenous TCF4 protein after shRNA transfection of rat neuroblastoma cells; type: cell-based; details: transfected rat neuroblastoma cells; vs control shRNA; N=4
# Method: Rat neuroblastoma cells (B104) were cultured in Dulbecco's modified Eagle medium (DMEM) (Thermo Fisher) supplemented with 10% FBS, 100 U-100 μg/ml Penicillin-Streptomycin, 2 mM L-Glutamine, and 100 μm non-essential amino acids and maintained at 37° C. with 5% CO2. At a confluency of […], cells were co-transfected in 6 well plates using Lipofectamine 3000 (Thermo Fisher) with 0.5 μg PBR-GFP, a puromycin selection plasmid, and 2 μg shRNA or 2 μg CRISPR-Cas9 plasmids according to the manufacturer's protocol. Cells were selected with 500 ng/mL puromycin for 24 hours and were allowed to recover in growth medium lacking penicillin-streptomycin for 48 hours.
# Rat neuroblastoma cells were washed in cold PBS, scraped from plates and pelleted by centrifugation at 4000 rpm for 5 minutes at 4° C. […]
# 30 μg of total protein were used from each sample; protein was subjected to gel electrophoresis using a 4-12% gradient Novex Bis-Tris Bolt SDS-PAGE gel. […] Bound antibody was detected using IRdye donkey anti-goat 680 (1:10,000, Li-Cor) and IRdye donkey anti-rabbit 800 (1:10,000, Li-Cor). Antibody detection and quantification were carried out using the LI-COR Odyssey infrared system and software.
compound,measurement,setting,value
"CC(C)(Oc1ccc(Cl)cc1)C(=O)NC1C2CC3CC1CC(NS(C)(=O)=O)(C3)C2 (stereo not drawn) [JNJ303, 2-(4-Chlorophenoxy)-2-methyl-N-[5-[(methylsulfonyl)amino]tricyclo[3.3.1.13,7]dec-2-yl]-propanamide]",effect on the frequency of APs generated in response to current injections,"[1]; JNJ303 1 μM, shTCF4 cells, significant for current pulses 250-500 pA, p=0.0084",effective at increasing the spiking frequency; also recorded: significantly increased firing frequency
same,amplitude of the sAHP after application,"[1]; JNJ303, shTCF4 cells, before −2.31±0.46 mV, p=0.041",−1.71±0.33 mV
same,amplitude of the mAHP after application,"[1]; JNJ303, shTCF4 cells, before −3.52±0.58 mV, p<0.044",−2.77±0.36 mV
same,IC50,[2],64 nM
same,effect on the frequency of APs (spiking),"[3]; JNJ303, N=8, p=0.11",neither UCL2077 (p=0.35) nor JNJ303 (p=0.11) had an effect on spiking
same,amplitude of the sAHP after application,"[3]; JNJ303, before −4.67±0.48 mV, N=9, p=0.20",−4.22±0.57
same,amplitude of the mAHP after application,"[3]; JNJ303, before −5.93±0.58 mV, N=9, not significant",−5.61±0.74 mV
"CC[N+](CC)(CC)CC.[Cl-] [TEA, Tetraethylammonium chloride]",effect on the fAHP current,"[4]; TEA 1 mM bath application, shCon and shTCF4 cells",blockade of the fAHP current
C[N+](C)(C)CCOC(N)=O [carbachol],effect on action potential frequency,"[1]; carbachol (10 μM) bath application, shTCF4 neurons, 600 ms pulses 50 to 500 pA, p=0.0075",effective at rescuing action potential frequency
same,peak amplitude of the mAHP after application,"[1]; carbachol, shTCF4 cells, before −6.78±0.70, p=0.0051",−4.23±0.60 mV
same,effect on spiking,"[3]; carbachol bath application, effective for current injections 200-500 pA, N=12, p=0.0038",increased spiking
same,amplitude of the sAHP after application,"[3]; carbachol, before −3.13±0.45, N=19, p=0.0004",−1.10±0.32 mV
same,peak amplitude of the mAHP after application,"[3]; carbachol, before −4.21±0.52, N=19, p=0.0008",−2.32±0.31 mV
same,effect on the sAHP (voltage clamp),"[4]; carbachol, shTCF4 cells, average voltage-clamp traces",block the sAHP
"shTCF4: shRNA construct targeting the open reading frame of rat TCF4, AGAAACTAGACGACGACAA (SEQ ID NO:2) (the letters are possibly those of the target site; listed as Homo sapiens)",TCF4 transcript (qRT-PCR),[5],0.55±0.15 fold change from control
same,endogenous TCF4 protein (Western blot),[6],1.9±2.0 % of control
"shTCF4_2: shRNA construct targeting the 3′ UTR of rat TCF4, GTTTCAGCATTCCCAATTA (SEQ ID NO:1) (the letters are possibly those of the target site)",TCF4 transcript (qRT-PCR),[5],0.47±0.11 fold change from control
same,endogenous TCF4 protein (Western blot),[6],36.4±4.3 % of control

# Reference: patent US11221329B2, “Treatment of neurological and neurodevelopmental diseases and disorders associated with aberrant ion channel expression and activity” (LIEBER INSTITUTE FOR BRAIN DEVELOPMENT, priority 2015, dated 2022)
